Assays:
caspase-11 = molecular target: T1, caspase-11 (Mus musculus, UniProt P70343); assay: Caspase-11 inhibition assay (Ac-YVAD-AMC); assay type: biochemical
T1 construct: made in house; host or cells: Sf9 (baculovirus)
T1 sequence (P70343 81-373): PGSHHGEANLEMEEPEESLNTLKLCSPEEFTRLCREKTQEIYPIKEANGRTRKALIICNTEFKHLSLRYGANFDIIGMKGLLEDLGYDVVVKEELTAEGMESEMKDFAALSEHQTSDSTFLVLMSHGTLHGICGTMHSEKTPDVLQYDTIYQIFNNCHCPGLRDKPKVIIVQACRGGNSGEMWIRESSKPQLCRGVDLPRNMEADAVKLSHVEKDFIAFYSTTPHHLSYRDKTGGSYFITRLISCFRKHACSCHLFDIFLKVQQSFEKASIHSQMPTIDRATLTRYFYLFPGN
Description: (§1) Caspase-1 and caspase-11 inhibition assays: the fluorogenic assay for caspase-1 and caspase-11 activity is based on release of 7-amino-4-methylcoumarin (AMC) from the caspase substrate Ac-YVAD-AMC. Compounds (8 nM-50 μM) were incubated with 0.5 U of caspase-1 or caspase-11 for 30 min in assay buffer (20 mM HEPES, 150 mM NaCl) in 384-well plates (Corning 3820) before addition of Ac-YVAD-AMC (40 μM) to initiate the reactions. Reactions were monitored in a SpectraMax M5 plate reader (Molecular Devices, Sunnyvale, Calif. USA) with excitation/emission wavelengths at 350/460 nm. The fluorescence intensity of each reaction was recorded every 2 min for 2 hrs.
(§2) Fluorescence intensity at 460 nm was measured after excitation at 350 nm.

caspase-1 = molecular target: T2, caspase-1 (Homo sapiens, UniProt P29466); assay: Caspase-1 inhibition assay (Ac-YVAD-AMC); assay type: biochemical
T2 sequence (P29466 120-404): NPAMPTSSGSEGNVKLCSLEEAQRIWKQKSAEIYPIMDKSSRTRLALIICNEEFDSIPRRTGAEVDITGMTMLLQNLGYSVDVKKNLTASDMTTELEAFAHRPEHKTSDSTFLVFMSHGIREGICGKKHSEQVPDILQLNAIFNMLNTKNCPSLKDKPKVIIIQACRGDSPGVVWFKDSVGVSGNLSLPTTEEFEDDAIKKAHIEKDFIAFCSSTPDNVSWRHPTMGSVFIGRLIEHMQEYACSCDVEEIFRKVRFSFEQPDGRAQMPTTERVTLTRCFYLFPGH
Description: as §1, §2

mouse GSDMA3-3C = molecular target: T3, mouse GSDMA3-3C (Mus musculus, UniProt Q5Y4Y6); assay: Liposome leakage assay, GSDMA3-3C plus 3C protease; assay type: biochemical; conditions: read-out: IC50 of liposome leakage; 3C-cleaved GSDMA3-3C
T3 construct: other: 3C-cleaved GSDMA3-3C; Human GSDMD-3C and mouse GSDMA3-3C mutants were constructed by QuikChange Mutagenesis (Agilent Technologies); fused on or other part: His6-MBP tag, removed by TEV before use; The engineered 3C site is cut by 3C protease, so the N-terminal pore-forming fragment is set free in the well

GSDMD pore formation = assay: GSDMD membrane staining and pyroptotic bubbles, immunofluorescence; assay type: cell-based, human; conditions: 30 μM, 30 min after nigericin
Description: Immunostaining and confocal microscopy: cells grown on coverslips were fixed for 15 min with 4% paraformaldehyde in PBS, permeabilized for 5 min in 0.1% Triton X-100 in PBS and blocked using 5% BSA for 1 hr. Then, cells were stained with the indicated primary antibodies followed by incubation with fluorescent-conjugated secondary antibodies (Jackson ImmunoResearch). Nuclei were counterstained with DAPI (4,6-diamidino-2-phenylindole) (Sigma-Aldrich). Slides were mounted using Aqua-Poly/Mount (Dako). Images were captured using a laser scanning confocal microscope (Olympus Fluoview FV1000 Confocal System) with a 63× water immersion objective and Olympus Fluoview software (Olympus). All confocal images are representative of three independent experiments.
To assess which steps in NLRP3-mediated inflammation were inhibited post ASC speck formation, LPS-primed THP-1 cells were treated with vehicle or 30 μM z-VAD-fmk, disulfiram or Bay 11-7082 1 hr before adding nigericin, and cleavage and activation of caspase-1, GSDMD, and pro-IL-1β were analysed by immunoblot of whole cell lysates 30 min later (FIG. 50). Secretion of processed IL-1β was also assessed by immunoblot of culture supernatants. […] Because immunoblots are not quantitative, caspase-1 activity 30 min after adding nigericin was also assessed using a fluorescent substrate in intact cells. […] Next, the effect of z-VAD-fmk, disulfiram and Bay 11-7082 on LPS+nigericin-induced GSDMD pore formation was assessed by immunofluorescence microscopy using a monoclonal antibody that was generated that recognizes both uncleaved GSDMD and its pore form (FIGS. 53, 54, and 64-66). […]
Cell death was determined by CytoTox96 assay. […] Cell death was determined by CytoTox96 assay. […] Representative images of ASC specks (arrowheads) and mean±s.d. percent of cells with ASC specks analyzed 20 min later (FIG. 47). […] Caspase-1 activity was assayed 30 min after adding nigericin using a cell-permeable fluorescence dye FAM-YVAD-FMK (FIG. 52). […]

T3 sequence (Q5Y4Y6 with tags, fused parts or gaps INS262LEVLFQGP, form open): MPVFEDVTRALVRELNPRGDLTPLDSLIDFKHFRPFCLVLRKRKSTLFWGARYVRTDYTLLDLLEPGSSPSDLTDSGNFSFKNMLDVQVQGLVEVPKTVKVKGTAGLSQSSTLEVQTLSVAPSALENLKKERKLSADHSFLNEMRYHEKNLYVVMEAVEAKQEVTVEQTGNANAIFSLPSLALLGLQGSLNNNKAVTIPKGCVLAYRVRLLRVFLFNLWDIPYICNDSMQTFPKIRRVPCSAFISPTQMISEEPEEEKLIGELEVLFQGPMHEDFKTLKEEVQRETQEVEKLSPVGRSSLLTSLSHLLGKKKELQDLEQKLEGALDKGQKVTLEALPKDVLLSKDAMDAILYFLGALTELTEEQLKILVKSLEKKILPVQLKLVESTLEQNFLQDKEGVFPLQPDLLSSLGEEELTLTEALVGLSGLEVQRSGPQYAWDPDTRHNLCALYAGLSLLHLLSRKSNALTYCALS

## CCN(CC)C(=S)SSC(=S)N(CC)CC [C-23, Tetraethylthiuram disulfide]
caspase-11
  IC50: 730 ± 70 nM
caspase-11; with Cu(II)
  effect of Cu(II) on caspase-11 inhibition: did not strongly change
caspase-1
  IC50: 150 ± 40 nM
caspase-1; with Cu(II)
  effect of Cu(II) on caspase-1 inhibition: did not strongly change
Mouse GSDMA3-3C
  IC50: 12100 ± 2100 nM
GSDMD pore formation
  GSDMD membrane staining and pyroptotic bubbles: completely blocked

## Cc1ccc(S(=O)(=O)/C=C/C#N)cc1 [Bay 11-7082]
caspase-11
  times less active against caspase-11 than disulfiram: about 3 fold
caspase-1
  caspase-1 inhibition: inhibited
GSDMD pore formation
  GSDMD membrane staining and pyroptotic bubbles: completely blocked

Reference: patent publication US20210267996A1, “Compounds for inhibition of inflammation” (Children`s Medical Center Corporation, priority 2018, published 2021)
